Data reported in US20080096909A1, “APOMORPHINE INHIBITORS OF AMYLOID-BETA (ABETA) FIBRIL FORMATION AND THEIR USE IN AMYLOIDOSIS BASED DISEASE” (priority 2001, published 2008).
Where a name gives a salt, the structure may show the parent alone.

Assays:
Aβ 1-40 [1] = molecular target: T1, Aβ 1-40 (Homo sapiens, UniProt P05067); assay: Thioflavin T (ThT) fluorescence assay for fibril formation; assay type: biochemical; design: Amyloid-β (Aβ 1-40) was purchased from California Peptides (Lot # SF104); purchased California Peptides Lot # SF104; settings: for Thioflavin T signal after longer incubation: longer incubation at 37° C., some long fibrils formed; for Thioflavin T signal with sodium metabisulphite added: stock solutions containing 1% (v/v) sodium metabisulphite, 37° C., pH 7.4, 3 days
Protocol: Preparation of Stock Peptide Solutions for Fibrillization Studies. Stock solutions of the inhibitors were prepared by dissolving the compounds at a concentration of 5-7 mM in water or in 1-1.5% DMSO solutions (for compounds with reduced solubility). Amyloid-β (Aβ 1-40) was purchased from California Peptides (Lot # SF104). Aβ 1-40 stock solutions were prepared by dissolving purified and lyophilized peptide in cold double distilled water to yield stock solutions at a concentration of 2 mg/mL. The stock solutions were used within 10-30 minutes of dissolution. Samples for fibril formation assay were prepared by diluting the appropriate amount of Aβ stock with pH 7.4 Tris-HCl buffer (50 mM Tris, 150 mM NaCl) to afford a final peptide concentration of 100 μM. […] Analytical ultracentrifugation, and electron microscopy were periodically used to ensure that we start our experiments with a hydrodynamically defined Aβ monomer, and the absence of any preformed fibrils in solution.
Thioflavin T (ThT) Fluorescence Assay for Fibril Formation. Thioflavin T was purchased from Aldrich (70% purity) and was recrystallized from benzene/ethanol (1:1) to afford yellow crystals (36). Thioflavin T binding assays were performed by addition of 50 μL of 100 μM Aβ solutions, which were incubated at 37° C. in the absence and presence of inhibitors, to 450 μL solution of 10 μM Thioflavin T in phosphate buffer (10 mM phosphate, 100 mM KCl). The solutions were mixed and fluorescence measurements were recorded in Biosystems model spectrofluorimeter at 25° C. using a 1 cm path length quartz cell. An excitation slit width of 4 nm and an emission slit width of 8 nm were employed. The excitation wavelength was set to 450 nm and emission monitored from 460-630 nm. The relative fluorescence at 482 nm was plotted for each sample, and was used as a measure of the amount of fibrillar aggregates in solution.

Aβ 1-40 [2] = molecular target: T1, Aβ 1-40; assay: Electron microscopy of Aβ aggregates in the presence of inhibitor; assay type: biochemical; design: Amyloid-β (Aβ 1-40) was purchased from California Peptides (Lot # SF104); purchased California Peptides Lot # SF104; settings: for Protofibril assembly into fibrils when compound is added to pre-incubated Aβ (EM and sedimentation velocity): Aβ pre-incubated 18-20 hr at 37° C., then three to nine days with compound
Protocol: Electron Microscopy. Electron microscopy was used to follow the changes in size and structural morphology of Aβ aggregates in the presence and absence of inhibitor at 37° C. as a function of time. EM samples were prepared by placing 5 μL of the Aβ solution on a carbon-coated grid and allowing the solution to stand for 2 min before removing excess solution. The grid was then washed once with distilled water and once with 1% uranyl acetate before staining the sample with fresh 1% uranyl acetate for another 2 min. The samples were then studied in a Phillips CM-100 electron microscope. The grids were thoroughly examined to get an overall statistical evaluation of the structures present in the sample. All electron micrographs were taken at 100 kV.

Aβ 1-40 [3] = molecular target: T1, Aβ 1-40; assay: Sedimentation velocity of Aβ quaternary structures in the presence of inhibitors; assay type: biochemical; design: Amyloid-β (Aβ 1-40) was purchased from California Peptides (Lot # SF104); purchased California Peptides Lot # SF104; settings: for Amount of nonfibrillar assemblies (protofibrils) formed by Aβ alone relative to that obtained in the presence of compound: 20 hour incubation; for Sedimentation velocities, 20 h (average sedimentation coefficient): Aβ 1-40 100 μM + compound 100 μM, 37° C.
Protocol: Probing the Mechanism of Amyloid Fibril Formation Inhibition using Sedimentation Velocity Experiments. To probe the mechanism by which apomorphine and its structural analogues inhibit Aβ fibril formation, sedimentation velocity was used to determine the distribution and molecular size of quaternary structures of Aβ in the presence and absence of inhibitors. Aβ samples (100 μM) in a pH 7.4 buffer (50 mM Tris-HCl, 150 mM NaCl) were incubated at 37° C. for 1-10 days in the presence and absence of inhibitors, then transferred to 25° C. for 1-3 hours before the sedimentation experiments were carried out at 20° C. The sedimentation properties of Aβ 1-40 in the absence and presence of inhibitors were obtained from data collected on a temperature controlled Beckman XL-1 using 400-420 μL of peptide solutions and data were recorded at rotor speeds of 3,000-30,000 rpm in continuous mode with a step size of 0.005 cm. The sedimentation velocity absorbance profiles were then analyzed using the time derivative (dc/dt) analysis program, which was provided by J. Philo, to obtain the sedimentation coefficient distribution g(*s) for all the quaternary structures in solution as described previously (37, 38).
Fitting of the g(*s) profiles allows for the determination of the sedimentation coefficient (peak position, with a unit of Svedberg, 1 S=10^−13 s) and the diffusion coefficient (from the peak width, with a unit of Fick, 1 F=[…]). This method has the advantage of allowing for the calculation of the molecular weight of the sedimenting species using equation II since s and D can be obtained from the fitting analysis. [formula]
In the cases where the diffusion coefficient cannot be determined accurately, the molecular weight of a spherical protein can still be estimated by combining the Svedberg equation and Stokes equation for the frictional coefficient to obtain equation III which utilizes the estimated sedimentation coefficient: [formula]
Sedimentation velocity was also used to determine the amount of soluble Aβ and Aβ monomer in solution after sedimentation of Aβ aggregates. […] The percent of monomeric species in solution was calculated using equation IV at 50,000 rpm and after complete sedimentation of Aβ high MW oligomeric species. Sedimentation equilibrium studies of the unsedimented species were carried out to determine whether a monomer, dimer or a mixture was present in solution. % of unsedimented Aβ=1−(Absorbance(290 nm, 3000 rpm)−Absorbance(290 nm, 20,000-30,000 rpm))×100 (IV)

Aβ 1-40 [4] = molecular target: T1, Aβ 1-40; assay: Aβ 1-40 fibril formation inhibition judged by ThT, sedimentation velocity and electron microscopy; settings: Aβ 1-40 100 μM; for Effect on Aβ 1-40 fibril formation (ThT, sedimentation velocity, EM): pH 7.4, 37° C., 3 days
[5] = Aβ coincubated with D030, 11 days at 37° C.

T1 sequence (P05067 672-711): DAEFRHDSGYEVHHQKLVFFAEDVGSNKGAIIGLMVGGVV

Row | Structure (SMILES) | Thioflavin T signal after longer incubation (Aβ 1-40 [1]) | Thioflavin T signal with sodium metabisulphite added (Aβ 1-40 [1]) | Protofibril assembly into fibrils when compound is added to pre-incubated Aβ (EM and sedimentation velocity) (Aβ 1-40 [2]) | Amount of nonfibrillar assemblies (protofibrils) formed by Aβ alone relative to that obtained in the presence of compound (Aβ 1-40 [3]) [%] | Sedimentation velocities, 20 h (average sedimentation coefficient) (Aβ 1-40 [3]) [S] | Effect on Aβ 1-40 fibril formation (ThT, sedimentation velocity, EM) (Aβ 1-40 [4]) | other results
1 | CCCN1CCc2cccc3c2[C@H]1Cc1ccc(O)c(O)c1-3.Cl [D027, R(−)-Propylnorapomorphine hydrochloride] | did not exhibit any changes | restoration of the ThT signal | no fibril formation | ~30 | 33 | – | Inhibition of Aβ fibril formation by EM, aged or freshly prepared stock solutions (Aβ 1-40 [2]; three to four days at 37° C.): effective inhibition of Aβ fibril formation
2 | Br.CCCN1CCc2cc(O)cc3c2[C@H]1Cc1ccc(O)c(O)c1-3 [D029, R(−)-2,10,11-Trihydroxy-N-propylnorapomorphine hydrobromide] | did not exhibit any changes | restoration of the ThT signal | exhibited similar behavior | ~30 | 35 | – | –
3 | Br.CN1CCc2cc(O)cc3c2[C@H]1Cc1ccc(O)c(O)c1-3 [D030, R(−)-2,10,11-Trihydroxyaporphine hydrobromide] | did not exhibit any changes | restoration of the ThT signal | least effective compound towards inhibiting protofibril assembly into fibrils | ~30 | 33 | – | Thioflavin T signal after 11 days (Aβ 1-40 [1]; [5]): did not show a ThT signal; Concentration at which Aβ 1-40 fibril formation is inhibited (Aβ 1-40 [4]; incubation period of three days): 100 µM; Incubation period during which nonfibrillar assemblies remain the dominant species (EM and sedimentation velocity) (Aβ 1-40 [2]; 37° C., incubation extended to nine days): 1 to 3 days; Structures seen by EM after 9 days (Aβ 1-40 [2]; Aβ 100 μM, pH 7.4, 9 days at 37° C.): accumulation of some long fibrils in solution; Structures seen by EM after 11 days (Aβ 1-40 [2]; [5]): significant amounts of fibrils in solution
4 | Br.Oc1ccc2c(c1O)-c1cccc3c1[C@@H](C2)NCC3 [D040, R(−)-Norapomorphine hydrobromide] | did not exhibit any changes | restoration of the ThT signal | exhibited similar behavior | ~30 | 31 | – | –
5 | CCCN1CCc2cccc3c2[C@H]1Cc1ccc2c(c1-3)OCO2.Cl [M121, R(−)-10,11-Methylenedioxy-N-n-propylnoraporphine hydrochloride] | – | – | – | – | – | showed no effect | –
6 | COc1ccc2c(c1O)-c1cccc3c1[C@@H](C2)N(C)CC3.Cl [R(−)-apocodeine, R(−)-Apocodeine hydrochloride] | – | – | – | – | – | showed no effect | –
7 | COc1ccc2c(c1O)-c1c3c(cc4c1[C@H](C2)N(C)CC4)OCO3 [bulbocapnine, Bulbocapnine hydrochloride] | – | – | – | – | – | showed no effect | –
8 | COc1ccc2c(c1O)-c1c(OC)c(OC)cc3c1[C@H](C2)N(C)CC3.Cl [isocrydine, Isocrydine hydrochloride] | – | – | – | – | – | showed no effect | –
